Source: publication PMC2772130 (Chemical research in toxicology, 2008)

Assays:
P450 1B1 [1] = target: T1, P450 1B1 (Homo sapiens, UniProt Q16678); assay: Quenching of P450 1B1; assay type: binding; conditions: extrapolated % quenching; 1.0 μM P450 1B1
T1 sequence (Q16678 1-543): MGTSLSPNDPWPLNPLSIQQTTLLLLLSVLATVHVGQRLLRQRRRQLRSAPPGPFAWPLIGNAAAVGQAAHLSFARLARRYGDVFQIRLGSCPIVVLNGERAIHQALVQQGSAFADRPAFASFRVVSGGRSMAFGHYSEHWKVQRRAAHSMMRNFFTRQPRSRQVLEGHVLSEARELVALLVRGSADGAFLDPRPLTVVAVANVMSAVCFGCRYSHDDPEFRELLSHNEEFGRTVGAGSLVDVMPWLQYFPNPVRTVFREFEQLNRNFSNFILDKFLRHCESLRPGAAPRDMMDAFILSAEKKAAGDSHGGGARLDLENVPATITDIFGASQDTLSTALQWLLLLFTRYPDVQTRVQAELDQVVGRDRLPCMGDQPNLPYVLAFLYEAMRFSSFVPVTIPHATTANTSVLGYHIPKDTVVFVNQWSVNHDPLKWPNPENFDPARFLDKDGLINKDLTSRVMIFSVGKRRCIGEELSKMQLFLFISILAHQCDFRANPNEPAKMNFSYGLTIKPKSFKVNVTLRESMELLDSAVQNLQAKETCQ

P450 1B1 [2] = target: T1, P450 1B1
P450 1B1 [3] = target: T1, P450 1B1; conditions: cited from earlier work
P450 1A1 [4] = target: T2, P450 1A1 (Homo sapiens, UniProt P04798); conditions: cited from earlier work
T2 sequence (P04798 1-512): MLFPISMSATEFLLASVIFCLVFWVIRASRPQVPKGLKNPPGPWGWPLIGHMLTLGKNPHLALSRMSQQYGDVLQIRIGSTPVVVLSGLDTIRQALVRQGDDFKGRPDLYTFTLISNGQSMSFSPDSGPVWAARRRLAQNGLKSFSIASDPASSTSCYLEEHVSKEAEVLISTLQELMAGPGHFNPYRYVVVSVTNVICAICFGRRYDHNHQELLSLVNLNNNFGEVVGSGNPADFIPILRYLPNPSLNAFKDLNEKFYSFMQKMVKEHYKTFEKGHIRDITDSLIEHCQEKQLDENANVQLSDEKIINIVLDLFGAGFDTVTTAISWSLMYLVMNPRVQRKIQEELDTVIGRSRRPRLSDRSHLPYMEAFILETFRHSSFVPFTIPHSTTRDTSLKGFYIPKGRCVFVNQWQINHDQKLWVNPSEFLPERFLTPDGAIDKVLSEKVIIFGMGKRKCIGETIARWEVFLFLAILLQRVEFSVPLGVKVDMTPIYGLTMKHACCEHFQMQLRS

P450 1B1 [5] = target: T1, P450 1B1; assay: Spectral binding titrations with purified P450 1B1; conditions: for wavelengths (peak/trough): 1 μM P450 1B1, pH 7.4
P450 1A1 [6] = target: T2, P450 1A1; assay: Quenching of inhibitor-derived fluorescence with P450 1A1; conditions: enzyme and inhibitor 10 nM; 25 °C
P450 1A2 [7] = target: T3, P450 1A2 (Homo sapiens, UniProt P05177); assay: Quenching of inhibitor-derived fluorescence with P450 1A2; conditions: enzyme and inhibitor 10 nM; 25 °C
T3 sequence (P05177 1-516): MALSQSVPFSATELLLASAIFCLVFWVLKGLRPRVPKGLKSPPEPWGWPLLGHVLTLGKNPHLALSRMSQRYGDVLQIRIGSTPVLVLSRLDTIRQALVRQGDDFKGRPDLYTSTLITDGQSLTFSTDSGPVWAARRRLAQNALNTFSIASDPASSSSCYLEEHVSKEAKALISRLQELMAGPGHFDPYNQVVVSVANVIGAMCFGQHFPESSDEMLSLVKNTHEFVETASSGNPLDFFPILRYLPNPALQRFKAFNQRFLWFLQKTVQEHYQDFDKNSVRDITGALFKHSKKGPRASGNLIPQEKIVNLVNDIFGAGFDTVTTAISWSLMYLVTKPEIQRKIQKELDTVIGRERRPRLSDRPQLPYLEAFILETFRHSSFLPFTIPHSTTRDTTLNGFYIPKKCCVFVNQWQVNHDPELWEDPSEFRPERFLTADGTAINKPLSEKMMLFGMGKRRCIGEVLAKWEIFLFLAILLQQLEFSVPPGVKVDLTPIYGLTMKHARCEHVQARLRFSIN

P450 1B1 [8] = target: T1, P450 1B1; assay: Quenching of PAH; conditions: for half-maximal time (t1/2) to decrease B[a]P emission: 10 nM P450 1B1, 25 °C
P450 1B1 [9] = target: T1, P450 1B1; assay: Inhibition of P450 1B1-dependent 7-ethoxyresorufin O-deethylation; conditions: for IC50: inhibition of EROD activity IC50, 15 s of incubation time (direct and direct/restore inhibitors), means and SE
P450 1A1 [10] = target: T2, P450 1A1; assay: Inhibition of P450 1A1-dependent EROD activity; assay type: biochemical; conditions: for fold increase in EROD Km of P450 1A1: 1PP 66 nM, 3PPh 333 nM
P450 1A2 [11] = target: T3, P450 1A2; assay: Inhibition of P450 1A2-dependent EROD activity; assay type: biochemical; conditions: 37 °C
P450 1A1 [12] = target: T2, P450 1A1; assay: Quenching of P450 fluorescence with inhibitors, P450 1A1; assay type: binding
P450 1A2 [13] = target: T3, P450 1A2; assay: Quenching of P450 fluorescence with inhibitors, P450 1A2; assay type: binding
P450 1A2 [14] = target: T3, P450 1A2; conditions: cited from earlier work

Compound | PAH binding to P450 1B1 Bmax (P450 1B1 [1]) [%] | ΔAmax / Ks (P450 1B1 [2]) | mechanism of inhibition of P450 1B1 (P450 1B1 [3]) | mechanism of inhibition of P450 1A1 (P450 1A1 [4]) | Kd (P450 1B1 [5]) [nM] | wavelengths (peak/trough) (P450 1B1 [5]) | Kd (P450 1B1 [8]) [nM] | IC50 (P450 1B1 [9]) [nM] | mechanism of inhibition of P450 1A2 EROD activity (P450 1A2 [11]) | Kd (P450 1A1 [12]) [µM] | Kd (P450 1A2 [13]) [µM] | other results
C#Cc1ccc2ccc3cccc4ccc1c2c34 [1EP, 1-ethynylpyrene] | 74 ± 1 | 0.017 | direct inhibitors | mechanism-based manner | 2900 ± 1000 | 416/383 | 1.9 to 18 | 31 ± 4 | – | – | – | fluorescence quenching with P450 1A1 (P450 1A1 [6]): to a lesser extent with P450 1A1 than 1B1; interaction with P450 1A2 (fluorescence quenching) (P450 1A2 [7]): No interactions
CC#Cc1ccc2ccc3cccc4ccc1c2c34 [1PP, 1-(1-propynyl)pyrene] | 69 ± 1 | 0.016 | direct inhibitors | mechanism-based manner | 2700 ± 400 | 416/383 | 1.9 to 18 | 22 ± 3 | mechanism-based manner | ~10 | ~10 | fold increase in EROD Km of P450 1A1 (P450 1A1 [10]; at 360 s): 10 fold; fold increase in EROD Km of P450 1A1 (P450 1A1 [10]; initial incubation time): ~ 8 fold; mechanism of inhibition of P450 1A1 EROD activity (P450 1A1 [10]; 37 °C, 30 min): mechanism-based inhibitors; EROD kcat of P450 1B1 relative to controls (P450 1B1 [9]; 1PP 66 nM, 3PPh 33 nM, after 6 min of incubation): 44%; fold increase in EROD Km of P450 1B1 (P450 1B1 [9]; 1PP 66 nM, 3PPh 33 nM, at 15 s): 6.8 fold; EROD kcat of P450 1B1 relative to control, first decrease (P450 1B1 [9]; initial stage of incubation): ~ one-fifth
c1ccc2c(c1)cc1ccc3cccc4ccc2c1c34 [B[a]P, benzo[a]pyrene] | – | – | – | – | – | – | 11 | 31 ± 4 | directly inhibited by low concentration of B[a]P, but the inhibition was increased with time at higher B[a]P concentrations | ~10 | ~10 | mechanism of inhibition of P450 1A2 (P450 1A2 [14]): mechanism-based manner; half-maximal time (t1/2) to decrease B[a]P emission (P450 1B1 [8]; 2.5 nM B[a]P): 33 s; half-maximal time (t1/2) to decrease B[a]P emission (P450 1B1 [8]; 5 nM B[a]P): 15 s; half-maximal time (t1/2) to decrease B[a]P emission (P450 1B1 [8]; 10 nM B[a]P): 7.5 s
